Assay results from the supplement of paper PMC10307832.

Experiments:
Assay in all cases: relative viability (nuclei count vs DMSO), 5 days (fraction); higher = more cells survive
LCLC-103H = system: LCLC-103H
Method in brief: (§1)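 Five library-drug doses in √10 steps were combined with a fixed anchor-drug dose, or a single drug was given alone, by pin tool to lung cancer cell lines in 1536-well plates the day after seeding. Nuclei were stained and counted after 5 days. Relative viability is the nuclei count in treated wells over that in vehicle wells, taken as the median of duplicate plates.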

LXF-289 = system: LXF-289
Method in brief: as §1

NCI-H1355 = system: NCI-H1355
Method in brief: as §1

NCI-H1563 = system: NCI-H1563
Method in brief: as §1

NCI-H1651 = system: NCI-H1651
Method in brief: as §1

NCI-H1755 = system: NCI-H1755
Method in brief: as §1

NCI-H1792 = system: NCI-H1792
Method in brief: as §1

NCI-H1915 = system: NCI-H1915
Method in brief: as §1

NCI-H2347 = system: NCI-H2347
Method in brief: as §1

NCI-H3122 = system: NCI-H3122
Method in brief: as §1

NCI-H322M = system: NCI-H322M
Method in brief: as §1

NCI-H441 = system: NCI-H441
Method in brief: as §1

NCI-H460 = system: NCI-H460
Method in brief: as §1

NCI-H520 = system: NCI-H520
Method in brief: as §1

NCI-H522 = system: NCI-H522
Method in brief: as §1

NCI-H596 = system: NCI-H596
Method in brief: as §1

NCI-H661 = system: NCI-H661
Method in brief: as §1

NCI-H727 = system: NCI-H727
Method in brief: as §1

PC-14 = system: PC-14
Method in brief: as §1

RERF-LC-KJ = system: RERF-LC-KJ
Method in brief: as §1

SK-MES-1 = system: SK-MES-1
Method in brief: as §1

SW 900 = system: SW 900
Method in brief: as §1

**Q.** Which results are given for Cc1sc2c(c1C)C(c1ccc(Cl)cc1)=N[C@@H](CC(=O)OC(C)(C)C)c1nnc(C)n1-2 [JQ1] + CCNC(=O)c1noc(-c2cc(C(C)C)c(O)cc2O)c1-c1ccc(CN2CCOCC2)cc1 [Luminespib] (partner 0.01 µM)?
**A.** relative viability (LCLC-103H; first compound 0.04 µM): 0.973; relative viability (LCLC-103H; first compound 0.1265 µM): 0.85; relative viability (LCLC-103H; first compound 0.4 µM): 0.533; relative viability (LCLC-103H; first compound 1.265 µM): 0.47; relative viability (LCLC-103H; first compound 4 µM): 0.358; relative viability (LXF-289; first compound 0.04 µM): 0.675; relative viability (LXF-289; first compound 0.1265 µM): 0.601; relative viability (LXF-289; first compound 0.4 µM): 0.597; relative viability (LXF-289; first compound 1.265 µM): 0.495; relative viability (LXF-289; first compound 4 µM): 0.541; relative viability (NCI-H1355; first compound 0.04 µM): 0.715; relative viability (NCI-H1355; first compound 0.1265 µM): 0.715; relative viability (NCI-H1355; first compound 0.4 µM): 0.453; relative viability (NCI-H1355; first compound 1.265 µM): 0.359; relative viability (NCI-H1355; first compound 4 µM): 0.339; relative viability (NCI-H1563; first compound 0.04 µM): 0.565; relative viability (NCI-H1563; first compound 0.1265 µM): 0.478; relative viability (NCI-H1563; first compound 0.4 µM): 0.449; relative viability (NCI-H1563; first compound 1.265 µM): 0.447; relative viability (NCI-H1563; first compound 4 µM): 0.491; relative viability (NCI-H1651; first compound 0.04 µM): 0.865; relative viability (NCI-H1651; first compound 0.1265 µM): 0.997; relative viability (NCI-H1651; first compound 0.4 µM): 0.768; relative viability (NCI-H1651; first compound 1.265 µM): 0.369; relative viability (NCI-H1651; first compound 4 µM): 0.375; relative viability (NCI-H1755; first compound 0.04 µM): 0.645; relative viability (NCI-H1755; first compound 0.1265 µM): 0.283; relative viability (NCI-H1755; first compound 0.4 µM): 0.539; relative viability (NCI-H1755; first compound 1.265 µM): 0.393; relative viability (NCI-H1755; first compound 4 µM): 0.442; relative viability (NCI-H1792; first compound 0.04 µM): 0.522; relative viability (NCI-H1792; first compound 0.1265 µM): 0.437; relative viability (NCI-H1792; first compound 0.4 µM): 0.383; relative viability (NCI-H1792; first compound 1.265 µM): 0.201; relative viability (NCI-H1792; first compound 4 µM): 0.314; relative viability (NCI-H1915; first compound 0.04 µM): 0.56; relative viability (NCI-H1915; first compound 0.1265 µM): 0.668; relative viability (NCI-H1915; first compound 0.4 µM): 0.364; relative viability (NCI-H1915; first compound 1.265 µM): 0.32; relative viability (NCI-H1915; first compound 4 µM): 0.186; relative viability (NCI-H2347; first compound 0.04 µM): 0.45; relative viability (NCI-H2347; first compound 0.1265 µM): 0.675; relative viability (NCI-H2347; first compound 0.4 µM): 0.3; relative viability (NCI-H2347; first compound 1.265 µM): 0.316; relative viability (NCI-H2347; first compound 4 µM): 0.32; relative viability (NCI-H3122; first compound 0.04 µM): 0.0811; relative viability (NCI-H3122; first compound 0.1265 µM): 0.0744; relative viability (NCI-H3122; first compound 0.4 µM): 0.162; relative viability (NCI-H3122; first compound 1.265 µM): 0.0911; relative viability (NCI-H3122; first compound 4 µM): 0.131; relative viability (NCI-H322M; first compound 0.04 µM): 0.797; relative viability (NCI-H322M; first compound 0.1265 µM): 0.879; relative viability (NCI-H322M; first compound 0.4 µM): 0.599; relative viability (NCI-H322M; first compound 1.265 µM): 0.383; relative viability (NCI-H322M; first compound 4 µM): 0.395; relative viability (NCI-H441; first compound 0.04 µM): 0.37; relative viability (NCI-H441; first compound 0.1265 µM): 0.501; relative viability (NCI-H441; first compound 0.4 µM): 0.419; relative viability (NCI-H441; first compound 1.265 µM): 0.253; relative viability (NCI-H441; first compound 4 µM): 0.235; relative viability (NCI-H460; first compound 0.04 µM): 0.031; relative viability (NCI-H460; first compound 0.1265 µM): 0.0279; relative viability (NCI-H460; first compound 0.4 µM): 0.0618; relative viability (NCI-H460; first compound 1.265 µM): 0.032; relative viability (NCI-H460; first compound 4 µM): 0.0328; relative viability (NCI-H520; first compound 0.04 µM): 0.224; relative viability (NCI-H520; first compound 0.1265 µM): 0.244; relative viability (NCI-H520; first compound 0.4 µM): 0.218; relative viability (NCI-H520; first compound 1.265 µM): 0.25; relative viability (NCI-H520; first compound 4 µM): 0.229; relative viability (NCI-H522; first compound 0.04 µM): 1.12; relative viability (NCI-H522; first compound 0.1265 µM): 1.21; relative viability (NCI-H522; first compound 0.4 µM): 0.677; relative viability (NCI-H522; first compound 1.265 µM): 0.601; relative viability (NCI-H522; first compound 4 µM): 0.504; relative viability (NCI-H596; first compound 0.04 µM): 1.09; relative viability (NCI-H596; first compound 0.1265 µM): 0.769; relative viability (NCI-H596; first compound 0.4 µM): 0.495; relative viability (NCI-H596; first compound 1.265 µM): 0.344; relative viability (NCI-H596; first compound 4 µM): 0.287; relative viability (NCI-H661; first compound 0.04 µM): 0.971; relative viability (NCI-H661; first compound 0.1265 µM): 0.968; relative viability (NCI-H661; first compound 0.4 µM): 1.01; relative viability (NCI-H661; first compound 1.265 µM): 0.646; relative viability (NCI-H661; first compound 4 µM): 0.593; relative viability (NCI-H727; first compound 0.04 µM): 0.357; relative viability (NCI-H727; first compound 0.1265 µM): 0.423; relative viability (NCI-H727; first compound 0.4 µM): 0.45; relative viability (NCI-H727; first compound 1.265 µM): 0.35; relative viability (NCI-H727; first compound 4 µM): 0.346; relative viability (PC-14; first compound 0.04 µM): 0.146; relative viability (PC-14; first compound 0.1265 µM): 0.146; relative viability (PC-14; first compound 0.4 µM): 0.0705; relative viability (PC-14; first compound 1.265 µM): 0.0929; relative viability (PC-14; first compound 4 µM): 0.0646; relative viability (RERF-LC-KJ; first compound 0.04 µM): 1.25; relative viability (RERF-LC-KJ; first compound 0.1265 µM): 1.07; relative viability (RERF-LC-KJ; first compound 0.4 µM): 1.04; relative viability (RERF-LC-KJ; first compound 1.265 µM): 0.668; relative viability (RERF-LC-KJ; first compound 4 µM): 0.414; relative viability (SK-MES-1; first compound 0.04 µM): 0.756; relative viability (SK-MES-1; first compound 0.1265 µM): 0.581; relative viability (SK-MES-1; first compound 0.4 µM): 0.317; relative viability (SK-MES-1; first compound 1.265 µM): 0.163; relative viability (SK-MES-1; first compound 4 µM): 0.173; relative viability (SW 900; first compound 0.04 µM): 0.153; relative viability (SW 900; first compound 0.1265 µM): 0.186; relative viability (SW 900; first compound 0.4 µM): 0.169; relative viability (SW 900; first compound 1.265 µM): 0.183; relative viability (SW 900; first compound 4 µM): 0.177
